Measurements: US20150359884A1, “MULTI-PHOTON ISOMERISATION OF COMBRETASTATINS AND THEIR USE IN THERAPY” (priority 2011, published 2015)

How the values were obtained:
[1] = Two-photon absorption cross section using reference fluorophore 9-chloroanthracene; assay type: physicochemical; details: at 620 nm, DCM
Text: Cell images were overlaid using Adobe Photoshop CS3.
Published cross sections for two photon absorption (σ2, the probability of an absorption process or photon interaction) typically show large variations depending on the method of measurement, using either the Z-scan method or a reference fluorophore, and the power range and pulse duration of the laser used for excitation. We have attempted to determine values of σ2 for E-CA4 and E-ACA4 using a reference fluorophore. 9-Chloroanthracene (9CIA) was selected as a standard fluorophore with an appropriate fluorescence spectrum and for which 2PE cross-sections are available. The values of σ2 at 620 nm for E-CA4 and E-CA4F in DCM were determined to be 2.1±0.5 and 2.75±0.6 GM units respectively. […] Values of σ2 at 620 nm for E-ACA and E-DMAC were both 5.7±1.2. These larger values may be consistent with some charge transfer character of the excitation of these compounds.

[2] = Fluorescence lifetimes in solvents, two-photon excitation with TCSPC; assay type: physicochemical; details: for Fluorescence lifetime τ: 20° C., two-photon excitation 620-630 nm
Experimental: Fluorescence lifetimes were determined using 2PE at 630 nm with the microscope TCSPC setup (overall time response of 25 ps fwhm) and produced the results shown in Table 1. […] Characterisation of the spectroscopic properties of these latter two compounds remains to be investigated further. […] In the very viscous environment provided by glycerol the lifetime increases further to 1180 ps. In the range of alkanols studied the lifetime is closely correlated with solvent viscosity as shown in the inset to FIG. 3. […] However it is clear that the measured lifetime has the potential to report on cellular environments in FLIM studies. For E-CA4F similar trends are observed, but the overall differences in both lifetimes and quantum yields over the range of solvents are rather less than for E-CA4. The fluorescence lifetimes of E-CA4F are confined to a narrower range having values ranging from 440 ps in methanol through 740 ps in hexane to 1070 ps in glycerol. The more pronounced solvent dependence for E-CA4 no doubt reflects the more polar nature of the molecule compared with E-CA4F. The relative polarities may be judged from the partition coefficients (P) calculated according to the method of Brown et al..

[3] = Fluorescence quantum yields in solvents, UV one-photon excitation; assay type: physicochemical; details: 20° C., 290-300 nm excitation
Experimental: Absorption spectra were measured in either a Perkin Elmer Lambda 25 or 950 spectrophotometer. Fluorescence measurements were made with either a Spex Fluoromax or Varian Cary Eclipse spectrofluorimeter using the spectral correction curves supplied by the manufacturers. Fluorescence quantum yields with UV (one-photon) excitation were determined using either 2-aminopyridine (Φref 0.6 [7]) or 9-chloroanthracene (Φref 0.50 in dichloromethane, determined here relative to 9,10-diphenylanthracene in cyclohexane (Φref 0.97) and anthracene in ethanol (Φref 0.28 [8]) as standards. Fluorescence quantum yields were determined from the relative slopes of plots of integrated fluorescence intensity versus (1-10^−A) for samples having absorbance A≦0.1. The square of the refractive index (n^2) correction was applied when sample and reference compounds were in different solvents. Irradiation of the samples was minimized by the use of narrow excitation slits to reduce simultaneous photoisomerization.
The fluorescence quantum yields for E-CA4F were generally somewhat higher than for E-CA4.

[4] = system: Chinese hamster ovary (CHO) cells; assay: Fluorescence lifetime imaging (FLIM) of uptake and intracellular concentration in CHO cells
Experimental: Both HeLa and Chinese hamster ovary (CHO) cells were obtained from the European Collection of Cell Cultures. HeLa cells were cultured in MEM medium (Gibco) containing 10% foetal calf serum, penicillin (100 units/mL), streptomycin (100 μg/mL) and glutamine (2 mM). CHO cells were cultured in DMEM (Gibco) with the same additions as for the HeLa cells. For microscopy the adherent cell cultures were grown in 35 mm diameter glass-bottom culture dishes with optical quality glass (MatTek Corporation) and incubated at 37° C. in a humidified atmosphere containing 5% CO2. Human umbilical vein endothelial cells (HUVECs) were obtained from TCS Cellworks. […]
The fluorescence lifetime imaging system with multiphoton excitation employed lasers for multiphoton excitation consisting of a Ti:Sapphire laser, tuneable between 700 and 1000 nm and providing ca 180 fs pulses at 76 MHz, and an optical parametric oscillator (OPO) pumped by a second Ti:Sapphire laser source. […] Using the various microscope ports it was possible to record the fluorescence in a number of ways. The fluorescence signal at one port was relayed to a spectrometer (Acton 275) and CCD setup (Andor iDUS) so that emission spectra and intensities could be recorded. […] In FLIM mode the fluorescence was isolated by a suitable narrowband interference filter (400IU25 together with BG3 (Comar)). […]

cells = details: typical toxicity assays; cited from earlier work

## COc1ccc(/C=C/c2cc(OC)c(OC)c(OC)c2)cc1O [E-CA4, (E)-1-(3′,4′,5′-Trimethoxyphenyl)-2-(4″-methoxy-3″-hydroxy-phenyl)ethene]
[1]
  Two photon absorption cross section σ2: 2.1±0.5 GM units
[2]; DCM, ne = non-exponential
  Fluorescence lifetime τ: 0.50 ns
[2]; DMSO
  Fluorescence lifetime τ: 0.49 ns
[2]; EtOH, ne = non-exponential
  Fluorescence lifetime τ: 0.28 ns
[2]; Ethylene glycol, ne = non-exponential
  Fluorescence lifetime τ: 0.58 ns
[2]; Glycerol, ne = non-exponential
  Fluorescence lifetime τ: 1.18 ns
[2]; Hexane
  Fluorescence lifetime τ: 0.86 ns
[2]; MeCN, ne = non-exponential
  Fluorescence lifetime τ: 0.29 ns
[2]; MeOH, ne = non-exponential
  Fluorescence lifetime τ: 0.23 ns
[2]; acetonitrile
  Fluorescence lifetime: around 220 ps
[2]; as shown in FIG. 10, compared with TRIR in dichloromethane
  Fluorescence lifetime: 500 ps
[2]; glycerol
  Fluorescence lifetime: 1180 ps
[2]; hexane
  Fluorescence lifetime: 855 ps
[3]; DCM
  Fluorescence quantum yield φ: 0.19
[3]; DMSO
  Fluorescence quantum yield φ: 0.15
[3]; EtOH
  Fluorescence quantum yield φ: 0.093
[3]; Ethylene glycol
  Fluorescence quantum yield φ: 0.19
[3]; Glycerol
  Fluorescence quantum yield φ: 0.35
[3]; Hexane
  Fluorescence quantum yield φ: 0.36
[3]; MeCN
  Fluorescence quantum yield φ: 0.099
[3]; MeOH
  Fluorescence quantum yield φ: 0.071
[4]; 10 μM in the medium
  Concentrating of the drug, factor relative to the surrounding medium: 25-75 times
[4]; 10 μmol dm^−3, 2PE 628 nm
  Intracellular distribution: located mainly within the cytoplasmic region of the cell
cells
  Concentrations required to kill cells: micromolar
